Where “and” joins values, the source holds several entries; their conditions need not be identical. Identical values can stand only once.
Assay: xn = mol fraction of the nth substance listed

COc1ccccc1N + CC(C)(C)O
viscosity [mPa·s], 101 kPa
Details	x1 = 0.1116	x1 = 0.186	x1 = 0.2667	x1 = 0.3547	x1 = 0.4852	x1 = 0.5945	x1 = 0.6737	x1 = 0.7585	x1 = 0.8979
303.15 K	3.186	3.335	3.499	3.676	3.932	4.141	4.289	4.448	4.714
308.15 K	2.904	3.046	3.199	3.363	3.602	3.797	3.935	4.083	4.327
313.15 K	2.371	2.521	2.681	2.855	3.114	3.333	3.493	3.669	3.962
318.15 K	1.967	2.116	2.277	2.451	2.718	2.95	3.123	3.314	3.639

CCC(C)=O + CC(C)=O
viscosity [mPa·s], 101 kPa
Details	x1 = 0.2	x1 = 0.4	x1 = 0.6	x1 = 0.8
293.15 K	0.334	0.35	0.365	0.381
313.15 K	0.278	0.29	0.302	0.314

O=C(O)c1ccccc1 + CC(C)=O
viscosity, 101 kPa
Details	298.15 K	303.15 K	308.15 K	313.15 K	318.15 K
x1 = 0.201	–	–	0.6647 mPa·s	–	0.5884 mPa·s
x1 = 0.2103	0.755 mPa·s	0.7075 mPa·s	0.6647 mPa·s	0.6278 mPa·s	0.5884 mPa·s
x1 = 0.213	–	–	0.6741 mPa·s	–	0.5924 mPa·s
x1 = 0.229	–	0.7776 mPa·s	0.7283 mPa·s and 0.7283 mPa·s	0.6819 mPa·s	0.6407 mPa·s and 0.6407 mPa·s
x1 = 0.247	–	–	0.75 mPa·s	–	0.6571 mPa·s

CCCCCCCC(=O)OCC + CC(C)CCO
100 kPa
Details	viscosity [mPa·s]
298.15 K, x1 = 0.3	1.885
308.15 K, x1 = 0.5001	1.315
313.15 K, x1 = 0.1	1.845

CCC(C)=O + CC(C)CO
viscosity [mPa·s], 101.3 kPa
Details	x2 = 0.0854	x2 = 0.1986	x2 = 0.3001	x2 = 0.3904	x2 = 0.4974	x2 = 0.5941	x2 = 0.6983	x2 = 0.7991	x2 = 0.8965
298.15 K	0.423	0.477	0.538	0.613	0.734	0.885	1.13	1.5	2.115
308.15 K	0.38	0.426	0.476	0.535	0.63	0.748	0.933	1.206	1.637
318.15 K	0.344	0.382	0.424	0.473	0.548	0.64	0.781	0.983	1.289

C1CCCCC1 + CC(C)O
303.15 K, 101.33 kPa
Details	viscosity [mPa·s]
x2 = 0.098	0.8169
x2 = 0.2003	0.8387
x2 = 0.3097	0.8861
x2 = 0.3997	0.9325
x2 = 0.4969	0.9831
x2 = 0.6009	1.063
x2 = 0.7025	1.174
x2 = 0.8004	1.313

CCC(C)=O + CC(C)O
101 kPa
Details	viscosity [mPa·s]
308.15 K, x1 = 0.1282	1.095
313.15 K, x1 = 0.0595	1.165

COC(C)=O + CC(C)O
298.15 K
Details	viscosity [mPa·s]
101 kPa, x2 = 0.0988	0.385
101 kPa, x2 = 0.2003	0.416
101 kPa, x2 = 0.3227	0.453
101 kPa, x2 = 0.3967	0.484
101 kPa, x2 = 0.4976	0.53
101 kPa, x2 = 0.666	0.668
101 kPa, x2 = 0.7895	0.933
101 kPa, x2 = 0.7978	0.96
101 kPa, x2 = 0.9011	1.37
101.33 kPa, x1 = 0.0598	1.642
101.33 kPa, x1 = 0.1684	1.101
101.33 kPa, x1 = 0.2671	0.83
101.33 kPa, x1 = 0.3634	0.671
101.33 kPa, x1 = 0.4646	0.571
101.33 kPa, x1 = 0.5621	0.504
101.33 kPa, x1 = 0.6773	0.448
101.33 kPa, x1 = 0.7619	0.417
101.33 kPa, x1 = 0.866	0.394

Source: the CheMixHub viscosity set
